Here are results for eight compounds from PMC11635519, “A High-Throughput Method for Screening Peptide Activators of G-Protein-Coupled Receptors” (ACS Omega, 2024).

One data set has as its target T1, hGLP1R (Homo sapiens, UniProt P43220).
T1 construct: expressed in transfected cells
The data set is described as follows: HTRF cAMP assay in GLP-1R-expressing HEK293 cells. It is filed as cell-based. The settings on record: at higher concentrations, HEK293 stably expressing GLP-1R, 4 h at 37 °C. The procedure:
cAMP accumulation was measured using a HTRF cAMP-Gs Dynamic kit (Cisbio Bioassays, 62AM4PEB) according to the manufacturer’s instructions. Briefly, HEK293 cells expressing hGLP1R were trypsinized from subconfluent culture and seeded in a 96-well low-volume plate at a density of 2000 cells per well. […] After 4 h of incubation at 37 °C, cAMP d2 reagent and cAMP Eu-Cryptate antibodies were added to each well. After incubation at room temperature for 30 min in the dark, the plate was read using a Synergy 2 plate reader (BioTek) with excitation at 330 nm and emission at 620 and 665 nm. Data were used to calculate the EC50 value by fitting it to a nonlinear sigmoidal curve using GraphPad Prism 8.
(In general: Time-resolved FRET reads energy transfer from a long-lived donor to a nearby acceptor.)

Data set [1] can be described thus: Circular dichroism secondary structure determination. The following applies: acetonitrile:PBS (1:2), 20 μM peptide, 0.1 cm cuvette, 10 accumulations; for Others (secondary structure content) / α-helix content / β-sheet content: Table S2, estimated by BeStSel from CD; for α-helical structure content: circular dichroism.
Procedure: We next performed circular dichroism (CD) analysis of the peptides in solution to determine the peptides’ secondary structure.
Peptide secondary structure determination was carried out using a Jasco J-720 spectropolarimeter (Table S2). Lyophilized peptide powders were dissolved in acetonitrile:PBS (1:2), and CD spectra were read immediately. […] Samples were read using a 0.1 cm cuvette path length with 10 accumulations per run and 50 nm/min scanning speed. All spectra were background subtracted.
The target in data set [2] is glucagon-like peptide-1 receptor (human) (UniProt P43220).
Chain of glucagon-like peptide-1 receptor (human) (P43220 24-463): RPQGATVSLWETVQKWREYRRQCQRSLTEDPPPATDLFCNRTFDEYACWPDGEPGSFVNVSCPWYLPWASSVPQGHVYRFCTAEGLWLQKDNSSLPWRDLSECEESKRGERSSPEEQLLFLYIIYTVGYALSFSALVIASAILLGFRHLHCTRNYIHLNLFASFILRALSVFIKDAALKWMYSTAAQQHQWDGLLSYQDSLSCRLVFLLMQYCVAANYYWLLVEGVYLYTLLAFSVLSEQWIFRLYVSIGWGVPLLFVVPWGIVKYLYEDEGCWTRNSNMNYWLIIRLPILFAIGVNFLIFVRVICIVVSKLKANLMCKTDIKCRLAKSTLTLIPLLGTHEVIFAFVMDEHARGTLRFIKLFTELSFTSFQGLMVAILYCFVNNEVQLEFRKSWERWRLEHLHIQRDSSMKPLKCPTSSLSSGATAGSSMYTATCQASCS
Data set [3] relates to GLP-1R. Put plainly: FACS analysis of GFP-positive cells (CRE-GFP reporter), GLP-1R-expressing HEK293. The settings on record: HEK293 cells transfected with GLP-1R. The data set is classed as cell-based. (In general: Flow cytometry measures light scatter and fluorescence of single cells or particles in a stream.)
Procedure: Cells were harvested by trypsin treatment and centrifuged at 500g for 5 min. The pellet was resuspended in ice-cold PBS and centrifuged again. The pellet was then resuspended at a concentration of 4 × 10^6 cells/mL in the PBS sorting buffer containing 100 Kunitz DNase I/mL, 10 μg/mL propidium iodide (Sigma), and 2% FBS. The sorting solution was also supplemented with either 10 μM forskolin, 100 μM 5,6-dichlorobenzimidazole riboside (DRB, Sigma), 10 μM forskolin (Sigma), and 100 μM DRB or DMSO, as a control. The cells were then sent through a 40 μm filter to remove large clumps and loaded into either a FACScan Flow Cytometer (BD Bioscience) for cell analysis or a FACSVantage SE cell sorter (BD Bioscience) for cell sorting. The cells with positive propidium iodide staining, i.e., the dead cells, were first eliminated from the analysis or sorting pool. For cell sorting, the desired population, either the EGFP brightest or least bright ones according to the purpose of experiments (see Results), was sorted into either 15 mL conical tubes or 96-well plates, which contained complete DMEM culture media.
Data set [4] deals with GLP-1R. The data set is described as follows: cAMP assay (TR-FRET) for validating GLP-1R activating peptides from screening. The data set is classed as cell-based. The settings on record: cells stably expressing GLP-1R and CRE, transfected with peptide-expressing construct, 24 h + 24 h; TR-FRET cAMP-Gs Dynamic kit. An excerpt:
We next screened the GPI-AP-peptide library using FACS to discover novel GLP-1R activators. FACS is a widely used flow cytometric technique that isolates specific cell populations from mixtures of different cells. Briefly, when a potential peptide activator stimulates GLP-1R, there is an intracellular boost of cAMP levels. Subsequently, cAMP activates CREB, which binds to CRE and triggers transcription of the GFP/luciferase reporter gene. […] We chose the top three activating peptides found throughout the screening for further validation testing (PepA3, Pep1, and Pep2).
Figure 3 Discovery of novel agonists of the GLP-1R using our screening platform. (A) Fluorescence-activated cell analysis and sorting of HEK293 cells transfected with the GLP-1R. […] (B) Confocal microscopy of HEK293 cells transfected with the GLP-1R treated with different peptides. […] The increase in the cyclic AMP concentration was quantified to evaluate the peptides’ activities.
The stable cell lines were prepared by the infection of HEK293T cells with the pLJM1 vector with GLP-1R and CRE. The cells were selected with the hygromycin antibiotic. […] The culture medium was changed, and cells were grown for 24 h. The cAMP cell content was estimated using a homogeneous time-resolved fluorescence resonance energy transfer (TR-FRET) immunoassay using a cAMP-Gs Dynamic kit (PerkinElmer) following manufacturer’s protocol.

The next data set concerns CCR2. The data set is described as follows: CRE-luciferase reporter assay of MCP1 fusion constructs (platform validation). It is filed as cell-based. The settings on record: HEK293T stably expressing CCR2 and Gaussia luciferase reporter, luciferase induced by 10 μM forskolin. An excerpt: Figure 2 Validation of the screening platform using the MCP1 peptide. (A) Genetic construction that encodes the fusion protein used to display library peptides on the cell surface. (B) Cell surface localization of the MCP1-GFP peptide and CCR2-mCherry receptor. MCP1-GFP peptide and CCR2-mCherry were localized at the cell surface when expressed separately. (C) MCP1-GFP peptide colocalized with CCR2-mCherry at the cell surface and distinct subcellular sites upon transient coexpression in HEK293T cells. (D) Evaluating the activity of different fusion proteins of the MCP1 peptide using a CRE-luciferase reporter assay. […] The activation of the different peptide variants was recorded through the inhibition of the luciferase expression induced by 10 μM forskolin.
MCP1-GFP and CCR2-mCherry were localized at the cell surface when expressed separately (Figure 2B). […] We then evaluated the activity of the different MCP1-GFP constructions using a CRE-luciferase reporter assay. As a negative control, we used a construction where the MCP1 peptide is not fused to the signal or GPI-AP sequences.
HEK293T cells stably expressing CCR2 and the reporter Gaussia Luciferase construct were trypsinized from subconfluent culture and seeded in a 96-well plate at a density of 5000 cells per well. […] Immediately after adding the reagent, samples were read using a luminometer with a 480 nm filter.
For orientation: In a reporter assay the amount or activity of a reporter protein is the signal.

Another data set has as its system CCR2-mCherry. Put plainly: FRET colocalization of MCP1-GFP with CCR2-mCherry at the cell surface. The data set is classed as cell-based. The following applies: MCP1-GFP and CCR2-mCherry; transient coexpression in HEK293 cells; FRET assays. On the procedure:
To validate our screening platform, we chose the interaction between the chemokine MCP1 peptide and C–C chemokine receptor 2 (CCR2).[10],[11] We designed a structure that encodes a fusion protein to display the MCP1 peptide on the cell surface. The Ly6/neurotoxin (LYNX1) signal and GPI-AP sequences were present in this fusion protein’s N- and C-terminal regions, respectively. A Flag tag or GFP sequence was added upstream of the GPI-AP sequence. We also investigated the effect of various linkers between MCP1 and FLAG, as well as the FLAG and GPI-AP sequences (Figure 2A). All of the different MCP1-GFP constructions and CCR2 receptor fused with the mCherry fluorescent protein (CCR2-mCherry) were cloned into the pLJM1 nGFP lentiviral vector to evaluate their expression in human embryonic kidney 293 (HEK293) cells.
Figure 2 Validation of the screening platform using the MCP1 peptide. (A) Genetic construction that encodes the fusion protein used to display library peptides on the cell surface. (B) Cell surface localization of the MCP1-GFP peptide and CCR2-mCherry receptor. MCP1-GFP peptide and CCR2-mCherry were localized at the cell surface when expressed separately. […]
MCP1-GFP and CCR2-mCherry were localized at the cell surface when expressed separately (Figure 2B). […] We then evaluated the activity of the different MCP1-GFP constructions using a CRE-luciferase reporter assay. […]

“Also recorded” adds a separate entry of the source. Where a SMILES comes first, the peptide text is derived from it.

T1 sequence (P43220 24-463): as above

With `CC[C@H](C)[C@H](N)C(=O)N[C@@H](CS)C(=O)N[C@@H](CCC(=O)O)C(=O)NCC(=O)N[C@@H](CC(C)C)C(=O)N[C@@H](CCCNC(=N)N)C(=O)N[C@@H](CCC(=O)O)C(=O)N[C@H](C(=O)N[C@@H](CS)C(=O)N[C@@H](CCC(N)=O)C(=O)N1CCC[C@H]1C(=O)N[C@@H](C)C(=O)N[C@@H](Cc1ccccc1)C(=O)N[C@@H](CC(=O)O)C(=O)N[C@@H](C)C(=O)N[C@H](C(=O)N[C@@H](CC(=O)O)C(=O)N[C@@H](CCSC)C(=O)N[C@@H](C)C(=O)N[C@@H](Cc1c[nH]c2ccccc12)C(=O)N1CCC[C@H]1C(=O)N[C@@H](Cc1ccc(O)cc1)C(=O)N[C@@H](Cc1ccccc1)C(=O)N[C@@H](CC(C)C)C(=O)N[C@@H](CC(=O)O)C(=O)N[C@@H](CS)C(=O)N[C@@H](Cc1c[nH]cn1)C(=O)N[C@@H](CCCNC(=N)N)C(=O)N[C@@H](Cc1ccc(O)cc1)C(=O)N[C@@H](Cc1ccccc1)C(=O)N[C@H](C(=O)N[C@@H](CCCNC(=N)N)C(=O)N[C@@H](CCC(=O)O)C(=O)O)[C@@H](C)O)[C@@H](C)CC)C(C)C` [PepA2] (H-ICEGLREVCQPAFDAIDMAWPYFLDCHRYFTRE-OH; N-terminus and C-terminus assumed), the “efficacy for GLP-1R activation relative to GLP-1” value at hGLP1R is “able to stimulate GLP-1R activation to a level comparable to that of GLP-1”. Besides, in data set [1], the “Others (secondary structure content)” value is on record as 56.5%, the α-helix content is recorded as 30.1%, the β-sheet content is given as 13.3% and the “α-helical structure content” value is listed as 30.1–46.1%.
The like results for `CC[C@H](C)[C@H](NC(=O)[C@H](C)NC(=O)[C@H](CC(=O)O)NC(=O)[C@H](Cc1ccccc1)NC(=O)[C@H](C)NC(=O)[C@@H]1CCCN1C(=O)[C@H](CCC(N)=O)NC(=O)[C@H](CS)NC(=O)[C@@H](NC(=O)[C@H](CCC(=O)O)NC(=O)[C@H](CCCNC(=N)N)NC(=O)[C@H](CC(C)C)NC(=O)CNC(=O)[C@H](CCC(=O)O)NC(=O)[C@H](CS)NC(=O)[C@@H](NC(=O)[C@@H](N)Cc1c[nH]cn1)[C@@H](C)CC)C(C)C)C(=O)N[C@@H](CC(=O)O)C(=O)N[C@@H](CCSC)C(=O)N[C@@H](C)C(=O)N[C@@H](Cc1c[nH]c2ccccc12)C(=O)N1CCC[C@H]1C(=O)N[C@@H](Cc1ccc(O)cc1)C(=O)N[C@@H](Cc1ccccc1)C(=O)N[C@@H](CC(C)C)C(=O)N[C@@H](CC(=O)O)C(=O)N[C@@H](CS)C(=O)N[C@@H](Cc1c[nH]cn1)C(=O)N[C@@H](CCCNC(=N)N)C(=O)N[C@@H](Cc1ccc(O)cc1)C(=O)N[C@@H](Cc1ccccc1)C(=O)N[C@H](C(=O)N[C@@H](CCCNC(=N)N)C(=O)N[C@@H](CCC(=O)O)C(=O)O)[C@@H](C)O` [PepA] (H-HICEGLREVCQPAFDAIDMAWPYFLDCHRYFTRE-OH; N-terminus and C-terminus assumed) were, in that order, “able to stimulate GLP-1R activation to a level comparable to that of GLP-1”, 45.4%, 46.1%, 8.5% and 30.1–46.1%.
In turn, glucagon-like peptide-1 (ligand) gave an EC50 of the decrease of the FRET signal in the HTRF cAMP assay, GLP-1R expressing HEK293 cells in data set [2] of 0.54 nM.
`C=C[C@@]1(C)CC(=O)[C@]2(O)[C@@]3(C)[C@@H](O)CCC(C)(C)[C@@H]3[C@H](O)[C@H](OC(C)=O)[C@@]2(C)O1` [forskolin]: the “GFP-positive cells versus no treatment” value in the data set on GLP-1R [3] is “more GFP-positive cells”.
For the compound SGLAGHSVFLVPGLAAHPGSHSDQPPGVPSRR [Pep2], the “stimulation of GLP-1R-expressing cells and intracellular cAMP increase” value with GLP-1R [4] is given as “Only PepA3 stimulated the GLP-1R-expressing HEK293 cells”.
“MCP1: chemokine MCP1 peptide displayed on the cell surface as fusion with LYNX1 signal and GPI-AP sequences”: the “activation of CCR2 receptor (inhibition of forskolin-induced luciferase expression)” value was “activated the receptor in all the constructions where the peptide was fused to the signal sequence and GPI-AP; also recorded: activated the CCR2 receptor in all the constructions where the peptide was fused to the signal and GPI-AP sequences” with CCR2 (MCP1 fused to the signal sequence and GPI-AP (all constructions), 6 h after transfection); “did not activate the CCR2 receptor when the peptide was not fused to the signal sequence and GPI-AP” in the data set on CCR2 (negative control: MCP1 not fused to the signal or GPI-AP sequences). The “colocalization with CCR2 at the cell surface” value in the data set on CCR2-mCherry was “colocalization of MCP1 and CCR2 at the cell surface”.
Regarding ELAELVPRLFRVASKTHRDLLEVNLQNGILFV [Pep1], the “stimulation of GLP-1R-expressing cells and intracellular cAMP increase” value with GLP-1R [4] is “Only PepA3 stimulated the GLP-1R-expressing HEK293 cells”.
As for `CC[C@H](C)[C@H](NC(=O)[C@H](C)NC(=O)[C@H](CC(=O)O)NC(=O)[C@H](Cc1ccccc1)NC(=O)[C@H](C)NC(=O)[C@@H]1CCCN1C(=O)[C@H](CCC(N)=O)NC(=O)[C@H](CS)NC(=O)[C@@H](NC(=O)[C@H](CCC(=O)O)NC(=O)[C@H](CCCNC(=N)N)NC(=O)[C@H](CC(C)C)NC(=O)CNC(=O)[C@H](CCC(=O)O)NC(=O)[C@@H](N)CS)C(C)C)C(=O)N[C@@H](CC(=O)O)C(=O)N[C@@H](CCSC)C(=O)N[C@@H](C)C(=O)N[C@@H](Cc1c[nH]c2ccccc12)C(=O)N1CCC[C@H]1C(=O)N[C@@H](Cc1ccc(O)cc1)C(=O)N[C@@H](Cc1ccccc1)C(=O)N[C@@H](CC(C)C)C(=O)N[C@@H](CC(=O)O)C(=O)N[C@@H](CS)C(=O)N[C@@H](Cc1c[nH]cn1)C(=O)N[C@@H](CCCNC(=N)N)C(=O)N[C@@H](Cc1ccc(O)cc1)C(=O)N[C@@H](Cc1ccccc1)C(=O)N[C@H](C(=O)N[C@@H](CCCNC(=N)N)C(=O)N[C@@H](CCC(=O)O)C(=O)O)[C@@H](C)O` [PepA3] (H-CEGLREVCQPAFDAIDMAWPYFLDCHRYFTRE-OH; N-terminus and C-terminus assumed), the “stimulation of GLP-1R-expressing cells and intracellular cAMP increase” value in the data set with GLP-1R [4] was “stimulated the GLP-1R-expressing HEK293 cells and increased the cAMP intracellular levels”. Further, on hGLP1R, the “efficacy for GLP-1R activation relative to GLP-1” value is listed as “able to stimulate GLP-1R activation to a level comparable to that of GLP-1”. Also, in data set [1], the “Others (secondary structure content)” value was 46.7%, the α-helix content was 42.9%, the β-sheet content is 10.4% and the “α-helical structure content” value is given as 30.1–46.1%.
